According to patent publication US20250144067A1, “PERSONALIZED STARVATION THERAPY FOR CANCER” (Faeth Therapeutics, Inc., priority 2021, published 2025):
Where a name gives a salt, the structure may show the parent alone. Ends that are not written are not given here.

Tests used:
[1] = test system: NCI-H292 lung cancer cells; assay: FDA drug screening, complete media vs cholesterol-free media with simvastatin (TABLE 2); format: cell-based, human; conditions: for Cholesterol-free media + simvastatin (0.04 μM) / Complete Media: NCI-H292 cells
[2] = test system: NCI-H292 lung cancer cells; assay: FDA drug screening, complete media vs cholesterol-free media without statin (TABLE 1); format: cell-based, human
[3] = drug in cholesterol-free media with simvastatin 0.04 μM
[4] = complete media vs cholesterol-free media + simvastatin (0.04 μM), >0 enhanced anti-cancer activity, about 0 neutral, <0 antagonist
[5] = NCI-H292 cells, cholesterol-free media without statin
[6] = complete vs cholesterol-free media, greater than 0 enhanced anti-cancer activity, about 0 neutral, below 0 antagonists
[7] = cholesterol-free media with simvastatin 0.04 μM, FDA drug library screen (TABLE 2)
[8] = complete media, FDA drug library screen (TABLE 2)
[9] = complete media minus cholesterol-free media + simvastatin (0.04 μM), >0 enhanced anti-cancer activity, about 0 neutral, <0 antagonist
[10] = NCI-H292 cells, cholesterol-free media without statin, FDA drug library screen
[11] = NCI-H292 cells, complete media, FDA drug library screen
[12] = complete vs cholesterol-free media, >0 enhanced anti-cancer activity, about 0 neutral, <0 antagonist
[13] = complete media minus cholesterol-free media + simvastatin, […]
[14] = Complete minus Cholesterol-free, […]
[15] = Complete minus Cholesterol-free, >0 enhanced anti-cancer activity, about 0 neutral, <0 antagonist
[16] = FDA drug library screen, cholesterol-free media with simvastatin 0.04 μM
[17] = FDA drug library screen, complete media
[18] = complete media minus cholesterol-free media + simvastatin, >0 enhanced anti-cancer activity, about 0 neutral, <0 antagonist
[19] = Complete minus Cholesterol-free, greater than 0 enhanced anti-cancer activity, about 0 neutral, below 0 antagonist
[20] = NCI-H292 cells, FDA drug library screen, cholesterol-free media without statin
[21] = NCI-H292 cells, FDA drug library screen, complete media
[22] = Complete minus Cholesterol-free, greater than 0 enhanced anti-cancer activity, about 0 neutral, below 0 antagonists
[23] = NCI-H292 cells in cholesterol-free media without statin
[24] = NCI-H292 cells in complete media
[25] = FDA library drug in cholesterol-free media with simvastatin 0.04 μM
[26] = FDA library drug in complete media
[27] = complete media vs cholesterol-free media + simvastatin (0.04 μM), […]
[28] = cholesterol-free media with simvastatin 0.04 μM, cell growth value in FDA drug screen
[29] = complete media, cell growth value in FDA drug screen

Nc1ccc(O)c(C(=O)O)c1 [5-Aminosalicylic Acid]
Cholesterol-free media + simvastatin (0.04 μM) [1, 3]: 1.224
Complete Media ([1]; drug in complete media): 1.016
Difference [1, 4]: −0.21
Cholesterol-free [2, 5]: 1.21
Complete ([2]; NCI-H292 cells, complete media): 0.8775
Difference [2, 6]: −0.33

Cc1cc(C(=O)NNCc2ccccc2)no1 [Isocarboxazid]
Cholesterol-free media + simvastatin (0.04 μM) [1, 7]: 1.551
Complete Media [1, 8]: 1.506
Difference [1, 9]: −0.05
Cholesterol-free [2, 10]: 0.685
Complete [2, 11]: 1.428
Difference [2, 12]: 0.74

COc1ccc2c3c1O[C@H]1C[C@@H](O)C=C[C@@]31CCN(C)C2 [Galanthamine (hydrobromide)]
Cholesterol-free media + simvastatin (0.04 μM) ([1]; cholesterol-free media with simvastatin 0.04 μM, […]): 1.411
Complete Media ([1]; complete media, […]): 1.432
Difference [1, 13]: 0.02
Difference [2, 14]: −0.25
Cholesterol-free [2, 5]: 1.284
Complete ([2]; NCI-H292 cells, complete media): 1.033

Cn1cnc([N+](=O)[O-])c1Sc1ncnc2nc[nH]c12 [Azathioprine]
Cholesterol-free media + simvastatin (0.04 μM) [1, 3]: 1.672
Complete Media ([1]; drug in complete media): 1.494
Difference [1, 4]: −0.18
Difference [2, 15]: −0.20
Cholesterol-free [2, 5]: 0.5865
Complete ([2]; NCI-H292 cells, complete media): 0.3893

C[C@]12CCC(=O)C=C1C=C[C@@H]1[C@@H]2CC[C@@]2(C)[C@H]1CC[C@@]21CCC(=O)O1 [Canrenone]
Cholesterol-free media + simvastatin (0.04 μM) [1, 16]: 1.098
Complete Media [1, 17]: 1.452
Difference [1, 18]: 0.35
Difference [2, 15]: −0.20
Cholesterol-free [2, 5]: 1.047
Complete ([2]; NCI-H292 cells, complete media): 0.8458

CC(=O)Nc1c(I)c(NC(C)=O)c(I)c(C(=O)[O-])c1I.[Na+] [Sodium diatrizoate]
Cholesterol-free media + simvastatin (0.04 μM) [1, 16]: 0.8717
Complete Media [1, 17]: 1.037
Difference [1, 18]: 0.16
Difference [2, 19]: −0.08
Cholesterol-free [2, 20]: 1.128
Complete [2, 21]: 1.045

O=[N+]([O-])c1cncn1CCN1CCOCC1 [Nimorazole]
Cholesterol-free media + simvastatin (0.04 μM) [1, 3]: 1.022
Complete Media ([1]; drug in complete media): 0.8004
Difference [1, 4]: −0.22
Cholesterol-free [2, 10]: 0.576
Complete [2, 11]: 0.9886
Difference [2, 12]: 0.41

Cc1cccc(N2CC(CO)OC2=O)c1 (centres unmarked) [Toloxatone]
Cholesterol-free media + simvastatin (0.04 μM) [1, 7]: 1.023
Complete Media [1, 8]: 1.032
Difference [1, 9]: 0.01
Difference [2, 22]: −0.48
Cholesterol-free [2, 23]: 1.574
Complete [2, 24]: 1.099

Clc1ccc(C(Cn2ccnc2)OCc2ccsc2Cl)c(Cl)c1 (centres unmarked) [Tioconazole]
Cholesterol-free media + simvastatin (0.04 μM) [1, 16]: 0.669
Complete Media [1, 17]: 0.9672
Difference [1, 18]: 0.30
Difference [2, 15]: −0.27
Cholesterol-free [2, 5]: 1.207
Complete ([2]; NCI-H292 cells, complete media): 0.9413

Argipressin (CYFQNCPRG; not fully specified (C-terminus, bridges); cysteine pairing not given here; UniProt P01185 20-28, looked up)
Cholesterol-free media + simvastatin (0.04 μM) [1, 25]: 1.506
Complete Media [1, 26]: 1.167
Difference [1, 27]: −0.34
Difference [2, 14]: −0.56
Cholesterol-free [2, 23]: 1.358
Complete [2, 24]: 0.7951

Cc1cc(NC(=O)C2=C(O)c3ccccc3S(=O)(=O)N2C)no1 [Isoxicam]
Cholesterol-free media + simvastatin (0.04 μM) [1, 3]: 1.282
Complete Media ([1]; drug in complete media): 1.064
Difference [1, 4]: −0.22
Difference [2, 22]: −0.71
Cholesterol-free [2, 23]: 1.72
Complete [2, 24]: 1.015

COc1cc(N)c(Cl)cc1C(=O)NC1CCN(CCCOc2ccc(F)cc2)CC1OC (centres unmarked) [Cisapride]
Cholesterol-free media + simvastatin (0.04 μM) [1, 16]: 1.001
Complete Media [1, 17]: 0.8916
Difference [1, 4]: −0.11
Difference [2, 22]: −0.91
Cholesterol-free [2, 23]: 1.595
Complete [2, 24]: 0.6865

N[C@@H](Cc1cc(I)c(Oc2cc(I)c(O)c(I)c2)c(I)c1)C(=O)O.[Na] [L-Thyroxine (sodium)]
Cholesterol-free media + simvastatin (0.04 μM) [1, 28]: 0.8676
Complete Media [1, 29]: 0.8889
Difference [1, 18]: 0.02
Difference [2, 15]: −0.07
Cholesterol-free [2, 10]: 1.137
Complete [2, 11]: 1.071

CCn1cc(C(=O)O)c(=O)c2cc(F)c(N3CCNC(C)C3)c(F)c21 (centres unmarked) [Lomefloxacin (hydrochloride)]
Cholesterol-free media + simvastatin (0.04 μM) [1, 25]: 1.657
Complete Media [1, 26]: 0.934
Difference [1, 4]: −0.72
Cholesterol-free [2, 5]: 1.531
Difference [2, 6]: −0.37

Oxaliplatin
Cholesterol-free media + simvastatin (0.04 μM) [1, 16]: 0.8725
Difference [1, 13]: 0.17
Cholesterol-free [2, 5]: 1.359
Complete ([2]; NCI-H292 cells, complete media): 0.9211
Difference ([2]; complete vs cholesterol-free media, […]): −0.44

O=C(NC(Cc1cc(=O)[nH]c2ccccc12)C(=O)O)c1ccc(Cl)cc1 (centres unmarked) [Rebamipide]
Cholesterol-free media + simvastatin (0.04 μM) [1, 16]: 1.344
Complete Media [1, 17]: 1.19
Difference [1, 4]: −0.15
Difference [2, 22]: −0.60
Cholesterol-free [2, 23]: 1.735
Complete [2, 24]: 1.132

O=C1c2c(O)ccc(O)c2C(=O)c2c(NCCNCCO)ccc(NCCNCCO)c21 [Mitoxantrone (dihydrochloride)]
Cholesterol-free media + simvastatin (0.04 μM) [1, 28]: 0.006643
Complete Media [1, 29]: 0.04976
Difference [1, 18]: 0.04
Difference [2, 15]: 0.00
Cholesterol-free [2, 10]: −0.002893
Complete [2, 11]: −0.002012

Naloxegol (oxalate)
Cholesterol-free media + simvastatin (0.04 μM) [1, 16]: 0.8544
Difference [1, 13]: 0.21
Difference [2, 14]: −0.15
Cholesterol-free [2, 20]: 1.025

O=C(O)CC(O)(CC(=O)O)C(=O)O [Citric acid]
Cholesterol-free media + simvastatin (0.04 μM) [1, 7]: 1.227
Complete Media [1, 8]: 1.209
Difference [1, 9]: −0.02
Difference [2, 19]: −0.17
Cholesterol-free [2, 20]: 0.92
Complete [2, 21]: 0.7466

CN(C)CCN(Cc1ccccc1)c1ccccn1 [Tripelennamine (hydrochloride)]
Cholesterol-free media + simvastatin (0.04 μM) [1, 25]: 1.12
Complete Media [1, 26]: 0.8343
Difference [1, 4]: −0.29
Difference [2, 19]: −0.13
Cholesterol-free [2, 20]: 1.185
Complete [2, 21]: 1.051

COc1cc(NS(=O)(=O)c2ccc(N)cc2)nc(OC)n1 [Sulfadimethoxine]
Cholesterol-free media + simvastatin (0.04 μM) [1, 16]: 0.819
Complete Media [1, 17]: 0.9685
Difference [1, 18]: 0.15
Cholesterol-free [2, 5]: 1.234
Complete ([2]; NCI-H292 cells, complete media): 0.8763
Difference [2, 6]: −0.36

Riboflavin (phosphate sodium)
Cholesterol-free media + simvastatin (0.04 μM) [1, 16]: 1.127
Complete Media [1, 17]: 0.9972
Difference [1, 4]: −0.13
Cholesterol-free [2, 5]: 1.308
Complete ([2]; NCI-H292 cells, complete media): 0.9828
Difference [2, 6]: −0.32

Cn1c(=O)c2c(ncn2CC(O)CO)n(C)c1=O (centres unmarked) [Diphylline]
Cholesterol-free media + simvastatin (0.04 μM) [1, 3]: 1.247
Complete Media ([1]; drug in complete media): 1.05
Difference [1, 27]: −0.20
Difference [2, 14]: −0.69
Cholesterol-free [2, 23]: 1.559
Complete [2, 24]: 0.8732
